Experimental data from PubChem BioAssay (NCI).
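48-hour exposure; five concentrations; linearly interpolated endpoints. Definition used: TGI = concentration required for complete inhibition of growth.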

Key:
Assay in all cases: NCI anticancer screen, dose series, 48 h
HCC-2998 colon = tested on: HCC-2998 colon
HCT-116 colon = tested on: HCT-116 colon
HL-60(TB) leukemia = tested on: HL-60(TB) leukemia
MALME-3M melanoma = tested on: MALME-3M melanoma
MOLT-4 leukemia = tested on: MOLT-4 leukemia
NCI-H226 lung = tested on: NCI-H226 lung
OVCAR-4 ovarian = tested on: OVCAR-4 ovarian
OVCAR-5 ovarian = tested on: OVCAR-5 ovarian
OVCAR-8 ovarian = tested on: OVCAR-8 ovarian
RPMI-8226 leukemia = tested on: RPMI-8226 leukemia
SR leukemia = tested on: SR leukemia
TK-10 renal = tested on: TK-10 renal
DU-145 prostate = tested on: DU-145 prostate
MDA-MB-231 breast = tested on: MDA-MB-231 breast
NCI/ADR-RES ovarian = tested on: NCI/ADR-RES ovarian
PC-3 prostate = tested on: PC-3 prostate
SK-OV-3 ovarian = tested on: SK-OV-3 ovarian
U251 CNS = tested on: U251 CNS
UACC-62 melanoma = tested on: UACC-62 melanoma

Row | SMILES | TGI (HCC-2998 colon) | TGI (HCT-116 colon) | TGI (HL-60(TB) leukemia) | TGI (MALME-3M melanoma) | TGI (MOLT-4 leukemia) | TGI (NCI-H226 lung) | TGI (OVCAR-4 ovarian) | TGI (OVCAR-5 ovarian) | TGI (OVCAR-8 ovarian) | TGI (RPMI-8226 leukemia) | TGI (SR leukemia) | TGI (TK-10 renal) | TGI (DU-145 prostate) | TGI (MDA-MB-231 breast) | TGI (NCI/ADR-RES ovarian) | TGI (PC-3 prostate) | TGI (SK-OV-3 ovarian) | TGI (U251 CNS) | TGI (UACC-62 melanoma)
1 | Nc1ccc2nc(Nc3ccc(F)cc3)cnc2c1 | > 100 µM | > 100 µM | > 100 µM | > 100 µM | > 100 µM | > 100 µM | > 100 µM | > 100 µM | > 100 µM | > 100 µM | > 100 µM | > 100 µM | – | – | – | – | – | – | –
2 | N#Cc1c(O)c(N=Nc2ccccc2F)c(=O)n2c1[nH]c1ccccc12 | > 100 µM | > 100 µM | > 100 µM | > 100 µM | – | > 100 µM | > 100 µM | > 100 µM | > 100 µM | – | – | > 100 µM | > 100 µM | 90.8 µM | > 100 µM | > 100 µM | > 100 µM | > 100 µM | > 100 µM
3 | COc1cccc(NC(=O)/C(CC(=O)CC(c2ccccc2)c2c(O)c3ccccc3oc2=O)=N\NC(C)(C)C)c1OC (configuration not stated) | > 100 µM | > 100 µM | > 100 µM | > 100 µM | > 100 µM | – | > 100 µM | > 100 µM | > 100 µM | > 100 µM | – | > 100 µM | – | – | – | – | > 100 µM | > 100 µM | > 100 µM
4 | CC(=O)OC[C@]1(O)CC[C@@]23CC1C[C@@H]2CCC1C(C)(C)CCC[C@@]13C (some centres not stated) | 33 µM | 24.2 µM | 20.4 µM | 29.5 µM | 15.8 µM | 32.7 µM | 30 µM | 23.5 µM | 32 µM | 28.1 µM | 23.6 µM | 26.2 µM | – | – | – | – | 28.9 µM | 27.1 µM | 26.2 µM
5 | CC(=O)OC1COC(Nc2ccc(C(C)=O)cc2)C(OC(C)=O)C1OC(C)=O (configuration not stated) | > 100 µM | – | – | > 100 µM | > 100 µM | > 100 µM | > 100 µM | – | > 100 µM | > 100 µM | > 100 µM | > 100 µM | – | – | – | – | > 100 µM | > 100 µM | > 100 µM
6 | COc1ccc(C(=O)Cc2c(C(=O)c3ccccc3)c3ccccc3n2C(=O)c2ccccc2)cc1 | > 100 µM | > 100 µM | > 100 µM | > 100 µM | > 100 µM | > 100 µM | > 100 µM | > 100 µM | > 100 µM | 70.9 µM | > 100 µM | > 100 µM | – | – | – | – | – | > 100 µM | > 100 µM
7 | Cc1ccc2c(=O)c3cccc(CC(=O)O)c3[nH]c2c1C | – | > 100 µM | > 100 µM | > 100 µM | > 100 µM | > 100 µM | > 100 µM | – | > 100 µM | > 100 µM | > 100 µM | > 100 µM | > 100 µM | > 100 µM | > 100 µM | > 100 µM | > 100 µM | > 100 µM | > 100 µM
8 | CCN=C(NNc1ccc([N+](=O)[O-])cc1)P(=O)(OC(C)C)OC(C)C | > 100 µM | > 100 µM | > 100 µM | > 100 µM | > 100 µM | > 100 µM | > 100 µM | > 100 µM | > 100 µM | > 100 µM | > 100 µM | > 100 µM | – | – | – | – | – | > 100 µM | > 100 µM
9 | Clc1ccc2c(c1)C1C(CO2)C(c2ccccc2)=NN1c1ccccc1 (configuration not stated) | > 100 µM | 62.4 µM | 53.1 µM | > 100 µM | 62.6 µM | – | – | > 100 µM | > 100 µM | 47.6 µM | – | > 100 µM | – | – | – | – | > 100 µM | > 100 µM | –
10 | O=C(COc1ccc(OCC(=O)N2C(=O)CSC2=Nc2ccccc2)cc1)N1C(=O)CSC1=Nc1ccccc1 | 44.2 µM | 27.3 µM | – | 86.2 µM | > 100 µM | > 100 µM | > 100 µM | 91.9 µM | – | > 100 µM | – | > 100 µM | > 100 µM | 90.1 µM | > 100 µM | > 100 µM | > 100 µM | > 100 µM | 36 µM
11 | [O-][n+]1onc2c1CCC(=N\O)/C2=N/Nc1ccccc1 | – | > 100 µM | > 100 µM | > 100 µM | > 100 µM | > 100 µM | > 100 µM | > 100 µM | > 100 µM | > 100 µM | > 100 µM | > 100 µM | > 100 µM | > 100 µM | > 100 µM | > 100 µM | > 100 µM | – | > 100 µM
12 | COC(=O)N1CCc2c(nc(N(C)CCO)[nH]c2=O)C1 | > 100 µM | > 100 µM | > 100 µM | > 100 µM | > 100 µM | > 100 µM | – | > 100 µM | > 100 µM | > 100 µM | > 100 µM | > 100 µM | – | – | – | – | > 100 µM | > 100 µM | > 100 µM
13 | c1ccc(Cc2nc(Cc3n[nH]c(Cc4ccccc4)n3)n[nH]2)cc1 | > 100 µM | > 100 µM | – | – | > 100 µM | – | > 100 µM | > 100 µM | > 100 µM | > 100 µM | > 100 µM | > 100 µM | > 100 µM | > 100 µM | > 100 µM | > 100 µM | > 100 µM | > 100 µM | > 100 µM
